# Measured values as given in patent publication US8758775B2 (priority 2005, dated 2014).
# How the values were obtained:
# [1] = system: E. coli-sta enterotoxin induced diarrhoea; design: species or system NMRI mice; details: mouse, in vivo
# [2] = system: E. coli-sta enterotoxin induced diarrhoea; design: species or system NMRI mice; details: mouse, in vivo; remark: listed apart in the source
# [3] = system: heartburn in patients suffering from endoscopic negative GORD; details: in vivo
# [4] = system: intestinal system's proteolytic capacity and disacaridase potential; details: cited from earlier work
Compound,mean number of stools passed [1],net stool weight [1],frequency of defecation [2],reduction in stool weight [2],Reported side-effects: Bloatedness [3],Reported side-effects: Constipation [3],Reported side-effects: Nausea [3],Reported side-effects: No side-effects [3],Reported side-effects: Sleeplessness [3],intestinal system's proteolytic capacity and disacaridase potential [4]
CN(C)C(=O)C(CCN1CCC(O)(c2ccc(Cl)cc2)CC1)(c1ccccc1)c1ccccc1 [loperamide],reduction,reduction,significantly reduced (P<0.05),significant (P<0.05),–,–,–,–,–,–
clinoptilolite,–,–,–,–,3/10,2/10,1/10,4/10,1/10,not modified
